Patent US8530462B2, “Indole modulators of S1P receptors” (Allergan, Inc., priority 2010, dated 2013)

Molecular target: T1, human S1P1 receptor (Homo sapiens, UniProt P21453)
T1 construct: expressed in transfected cells; membranes were used
Test: GTP γ35S binding assay, S1P1 receptor activity
Format: biochemical
Conditions: for % stimulation: S1P1 receptor, agonist-induced stimulation; for EC50: membranes of cells stably expressing the S1P1 receptor, test compounds 0.08 to 5,000 nM
Method: The S1P1 activity of the compounds according to the invention, were tested using the GTP γ^35S binding assay. The compounds were assessed for their ability to activate or block activation of the human S1P1 receptor in cells stably expressing the S1P1 receptor.
GTP γ^35S binding was measured in the medium containing (mM) HEPES 25, pH 7.4, MgCl2 10, NaCl 100, dithitothreitol 0.5, digitonin 0.003%, 0.2 nM GTP γ^35S, and 5 μg membrane protein in a volume of 150 μl. Test compounds were included in the concentration range from 0.08 to 5,000 nM unless indicated otherwise. Membranes were incubated with 100 μM 5′-adenylylimmidodiphosphate for 30 min, and subsequently with 10 μM GDP for 10 min on ice. Drug solutions and membrane were mixed, and then reactions were initiated by adding GTP γ^35S and continued for 30 min at 25° C. Reaction mixtures were filtered over Whatman GF/B filters under vacuum, and washed three times with 3 mL of ice-cold buffer (HEPES 25, pH7.4, MgCl2 10 and NaCl 100). Filters were dried and mixed with scintillant, and counted for ^35S activity using a β-counter. Agonist-induced GTP γ^35S binding was obtained by subtracting that in the absence of agonist. Binding data were analyzed using a non-linear regression method. In case of antagonist assay, the reaction mixture contained 10 nM S1P in the presence of test antagonist at concentrations ranging from 0.08 to 5000 nM.
Activity potency: S1P1 receptor from GTP γ^35S: nM, (EC50), % stimulation, […]

T1 sequence (P21453 whole entry): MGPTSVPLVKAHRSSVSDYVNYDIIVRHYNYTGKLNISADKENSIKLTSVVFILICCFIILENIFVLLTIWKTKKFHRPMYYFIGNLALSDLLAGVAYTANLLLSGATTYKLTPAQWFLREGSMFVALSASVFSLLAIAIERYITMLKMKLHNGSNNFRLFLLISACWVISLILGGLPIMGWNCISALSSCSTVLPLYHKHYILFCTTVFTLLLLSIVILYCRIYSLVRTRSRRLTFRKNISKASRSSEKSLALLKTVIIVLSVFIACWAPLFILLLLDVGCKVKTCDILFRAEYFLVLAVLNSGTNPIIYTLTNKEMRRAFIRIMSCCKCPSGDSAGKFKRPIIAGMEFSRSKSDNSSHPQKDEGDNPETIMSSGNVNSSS

Row | % stimulation | EC50 | Compound
1 | 92% | 426 nM | Cc1ccc2c(c1)c(-c1nc(-c3ccc(CN4CC(C(=O)O)C4)cc3)no1)cn2Cc1ccc(C)c(C)c1 [Compound 1, 1-(4-{5-[1-(3,4-dimethylbenzyl)-5-methyl-1H-indol-3-yl]-1,2,4-oxadiazol-3-yl}benzyl)azetidine-3-carboxylic acid]
2 | 94% | 737 nM | Cc1ccc(Cn2cc(-c3nc(-c4ccc(CN5CC(C(=O)O)C5)cc4)no3)c3cc(F)ccc32)cc1C [Compound 2, 1-(4-{5-[1-(3,4-dimethylbenzyl)-5-fluoro-1H-indol-3-yl]-1,2,4-oxadiazol-3-yl}benzyl)azetidine-3-carboxylic acid]
3 | 82% | 1560 nM | COc1ccc2c(c1)c(-c1nc(-c3ccc(CN4CC(C(=O)O)C4)cc3)no1)c(C)n2Cc1ccc(C)c(C)c1 [Compound 3, 1-(4-{5-[1-(3,4-dimethylbenzyl)-5-methoxy-2-methyl-1H-indol-3-yl]-1,2,4-oxadiazol-3-yl}benzyl)azetidine-3-carboxylic acid]
4 | 92% | 1020 nM | Cc1ccc(Cn2cc(-c3nc(-c4ccc(CN5CC(C(=O)O)C5)cc4)no3)c3ccccc32)cc1C [Compound 4, 1-(4-{5-[1-(3,4-dimethylbenzyl)-1H-indol-3-yl]-1,2,4-oxadiazol-3-yl}benzyl)azetidine-3-carboxylic acid]
5 | 91% | 189 nM | O=C(O)C1CN(Cc2ccc(-c3noc(-c4cn(Cc5ccccc5)c5ccc(F)cc45)n3)cc2)C1 [Compound 5, 1-{4-[5-(1-benzyl-5-fluoro-1H-indol-3-yl)-1,2,4-oxadiazol-3-yl]benzyl}azetidine-3-carboxylic acid]
6 | 86% | 1160 nM | c1ccc(Cn2cc(-c3nc(-c4ccc(Cn5ccnc5)cc4)no3)c3ccccc32)cc1 [Compound 6, 1-benzyl-3-{3-[4-(1H-imidazol-1-ylmethyl)phenyl]-1,2,4-oxadiazol-5-yl}-1H-indole]
7 | 66% | 494 nM | O=C(O)C1CN(Cc2ccc(-c3noc(-c4cn(Cc5ccccc5)c5ccccc45)n3)cc2)C1 [Compound 8, 1-{4-[5-(1-benzyl-1H-indol-3-yl)-1,2,4-oxadiazol-3-yl]benzyl}azetidine-3-carboxylic acid]
8 | 85% | 1000 nM | Cc1ccc(Cn2c(C)c(-c3nc(-c4ccc(CN5CC(C(=O)O)C5)cc4)no3)c3cc(F)ccc32)cc1C [Compound 9, 1-(4-{5-[1-(3,4-dimethylbenzyl)-5-fluoro-2-methyl-1H-indol-3-yl]-1,2,4-oxadiazol-3-yl}benzyl)azetidine-3-carboxylic acid]
9 | 88% | 703 nM | CNc1ncccc1-c1noc(-c2cn(Cc3ccccc3)c3ccccc23)n1 [Compound 10, 3-[5-(1-benzyl-1H-indol-3-yl)-1,2,4-oxadiazol-3-yl]-N-methylpyridin-2-amine]
10 |  | 569 nM | CNc1ncccc1-c1noc(-c2cn(Cc3ccc(C)c(C)c3)c3ccc(F)cc23)n1 [Compound 11, 3-{5-[1-(3,4-dimethylbenzyl)-5-fluoro-1H-indol-3-yl]-1,2,4-oxadiazol-3-yl}-N-methylpyridin-2-amine]
11 |  | 394 nM | O=C(O)CCNCc1ccc(-c2noc(-c3cn(Cc4ccccc4)c4ccccc34)n2)cc1 [Compound 12, 3-({4-[5-(1-benzyl-1H-indol-3-yl)-1,2,4-oxadiazol-3-yl]benzyl}amino)propanoic acid]
12 | 82% | 351 nM | Cc1ccc2c(c1)c(-c1nc(-c3ccc(CNCCC(=O)O)cc3)no1)cn2Cc1ccc(C)c(C)c1 [Compound 13, 3-[(4-{5-[1-(3,4-dimethylbenzyl)-5-methyl-1H-indol-3-yl]-1,2,4-oxadiazol-3-yl}benzyl)amino]propanoic acid]
13 | 93% | 1490 nM | Cc1ccc(Cn2cc(-c3nc(-c4ccc(CNCCC(=O)O)cc4)no3)c3cc(F)ccc32)cc1C [Compound 14, 3-[(4-{5-[1-(3,4-dimethylbenzyl)-5-fluoro-1H-indol-3-yl]-1,2,4-oxadiazol-3-yl}benzyl)amino]propanoic acid]
14 | 108% | 1010 nM | O=C(O)CCCCNCc1ccc(-c2noc(-c3cn(Cc4ccccc4)c4ccccc34)n2)cc1 [Compound 15, 5-({4-[5-(1-benzyl-1H-indol-3-yl)-1,2,4-oxadiazol-3-yl]benzyl}amino)pentanoic acid]
15 | 81% | 1440 nM | Cc1ccc(Cn2cc(-c3nc(-c4ccc(CNCCC(=O)O)cc4)no3)c3ccccc32)cc1C [Compound 16, 3-[(4-{5-[1-(3,4-dimethylbenzyl)-1H-indol-3-yl]-1,2,4-oxadiazol-3-yl}benzyl)amino]propanoic acid]
16 | 100% | 129 nM | O=C(O)CCNCc1ccc(-c2noc(-c3cn(Cc4ccccc4)c4ccc(F)cc34)n2)cc1 [Compound 17, 3-({4-[5-(1-benzyl-5-fluoro-1H-indol-3-yl)-1,2,4-oxadiazol-3-yl]benzyl}amino)propanoic acid]
